The nature of series [1]: Acute toxicity in mice, single oral dose. It counts as in vivo, male Swiss-Webster mice. To be noted: for Average body weight of test animals, Day 0 / Average body weight of test animals, Day 1 / Average body weight of test animals, Day 3 / Average body weight of test animals, Day 7 / Average body weight of test animals, Day 14: 1 g/kg oral intubation; for Average body weight of test animals, Day 0: day 0 (prior to administration); for t (body weight, test vs control), Day 0 / t (body weight, test vs control), Day 1 / t (body weight, test vs control), Day 3 / t (body weight, test vs control), Day 7 / t (body weight, test vs control), Day 14: 1 g/kg oral, 0.95 confidence. The procedure: The sweet isolates, abrusosides A-D, are each tested for acute toxicity in mice. Experiments are carried out with male Swiss-Webster mice (6-8 weeks old), that are housed in temperature-controlled rooms with a 12-hr light/dark cycle, and allowed free access to water and food. After acclimatization for three days, groups of 10 animals receive a single 1 g/kg body weight dose of either abrusoside A, B, C, or D by oral intubation. Test materials are suspended in 1% aqueous sodium carboxymethylcellulose. A control group treated with only 1% sodium caroboxymethylcellulose is also included in the experiment. In all experiments, no incidence of mortality occurred for up to 14 days after dosing. Animals are examined for body weight variations on days 0 (prior to administration), 1, 3, 7, and 14. Body weight variations between treated and control groups are analyzed by one-way analysis of variance using an appropriate computer program. It may be seen from these tables that no significant differences in body weight variation occurred between each of the four test compounds and the controls, when assessed for a fourteen day period following compound administration.

A short description of series [2]: Sensory evaluation by human taste panel. To be noted: for Sweetness relative to a 2% aqueous solution of sucrose: ammonium salts, in water, human taste panel; for Sweetness relative to 2% sucrose: three-person panel, dilute ammonium hydroxide solution diluted with water. How it is done: Abrusoside A (4 mg) is dissolved in 0.033N ammonium hydroxide solution (0.2 ml), to which is added 1.8 ml of water to yield the equivalent of a 0.2 % w/v solution of abrusoside A. Aliquots (0.2 ml) of this solution are diluted with 0.4, 0.8, 1.3, and 1.8 ml water, respectively. The diluted solutions is tasted sequentially, in order to judge the intensity of sweetness equivalent to that of a 2% w/v aqueous sucrose solution. Similar procedures are used in the sensory evaluation of […], expect that the concentrations of the ammonium hydroxide solutions used are 0.05N for abrusosides B and C, and 0.025N for abrusoside D. These sensory experiments are performed by a small panel consisting of three persons.

Series [3] relates to Salmonella typhimurium strain TM677. The series is classed as cell-based. The note with it: DMSO. The procedure:
Salmonella typhimurium strain TM677, carrying the "R-factor" plasmid pKM101, is used for the assessment of mutagenic activity. Mutagenic assays are conducted on abrusosides A, B, C, and D, both in the absence and presence of a metabolic activating agent, obtained from a 9,000 × g supernatant fraction from the livers of […] rats. The following protocols are used in this procedure.
Male Sprague-Dawley rats (body weight 100-120 g) were housed in air-conditioned quarters, with a 12 hr/12 hr light-dark cycle, and are given food and water ad libitum. The rats (groups of 10) are given single intraperitoneal injections of Aroclor 1254 (400 mg/kg) in corn oil. Four days after the treatment with Aroclor 1254, the rats are sacrificed by decapitation. Their livers are immediately excised, rinsed several times with cold 0.14 M NaCl, minced, and homogenized with 3 volumes (v/w) of 50 mM Tris HCl, pH 5, containing 0.14 M KCl, using a glass homogenizing vessel and a motor-driven Teflon pestle. The homogenate is filtered through cheese-cloth, and centrifuged at 9,000 g for 20 minutes to yield an S-9 fraction. The isolation procedures described above are conducted at 0°-4° C., and the isolated S-9 fraction is stored in small aliquots in liquid nitrogen.
Duplicate 0.98-ml reaction mixtures containing 0.1 mg of NADP^+, 1.0 mg of glucose-6-phosphate, 0.8 units of glucose-6-phosphate dehydrogenase, 0.67 mg of MgCl2, the S-9 fraction, and approximately 7×10^6 bacteria in logarithmic phase, are prepared in minimal essential medium. When metabolic activation is not required, only bacteria and minimal essential medium are mixed.
After addition of each test substance dissolved in 20 ul of DMSO, the mixtures are slowly rotated at 37° C. for 2 hours. Each reaction mixture is then quenched by addition of 4 ml phosphate-buffered saline. The bacteria are recovered by centrifugation, resuspended, diluted as appropriate, and plated, in triplicate, in the presence or absence of 8-azaguanine. Plates are scored […] on plates containing 8-azaguanine divided by the average number of plates not containing azaguanine, after correcting for dilution factors. The latter value is used to define the percentage of bacteria surviving the treatment, relative to a control in which only an equivalent amount of solvent had been added.
The spontaneous mutant fraction for this assay is 7.4±5×10^-5 (n=145). A compound is said to cause significant mutation if the induced mutant fraction is greater than or equal to two times the spontaneous mutant fraction.

For series [4] the following is noted: cited from earlier work.
Setting [5] is: 2.5 mg/ml, activating system none.
[6] abbreviates: 5.0 mg/ml, activating system none.

Like-named read-outs stand apart in the source and are kept apart here.

On to `CC1=CC[C@@H]([C@@H](C)[C@H]2CC[C@@]3(C)[C@@H]4CC[C@H]5[C@](C)(C(=O)O)[C@@H](O[C@@H]6O[C@H](CO)[C@@H](O)[C@H](O)[C@H]6O)CC[C@@]56C[C@@]46CC[C@]23C)OC1=O` [Abrusoside A], for which, in series [1], the “Average body weight of test animals, Day 0” value (“Average body weight … Day 0” for short) was 23.4 g; the “Average body weight of test animals, Day 1” value is on record as 23.7 g; the “Average body weight of test animals, Day 3” value (from here on “Average body weight … Day 3”) is reported as 24.4 g; the “Average body weight of test animals, Day 7” value (from here on “Average body weight … Day 7”) came out at 25.4 g. Further, in series [1], the “Average body weight of test animals, Day 14” value (from here on “Average body weight … Day 14”) turned out to be 26.1 g; the “t (body weight, test vs control), Day 0” value was 0.292; the “t (body weight, test vs control), Day 1” value is given as 0.153; the “t (body weight, test vs control), Day 3” value was determined as 0.368. Moreover, in series [1], the “t (body weight, test vs control), Day 7” value stood at 0.000 and the “t (body weight, test vs control), Day 14” value worked out at 0.000. Moreover, in series [2], the “Sweetness relative to a 2% aqueous solution of sucrose” value is given as 30 x and the “Sweetness relative to 2% sucrose” value worked out at 30 times. Further, in series [3] (2.5 mg/ml, Aroclor S-9), the “% Survival” value was determined as 100% and the “Mutant Fraction” value is 8.1 × 10^5. In addition, in series [3] (setting [5]), the “% Survival” value is given as 100% and the “Mutant Fraction” value is 7.9 × 10^5. In addition, in series [3] (5.0 mg/ml, Aroclor S-9), the “% Survival” value was found to be 100% and the “Mutant Fraction” value was 7.3 × 10^5. In series [3] (setting [6]), the “% Survival” value turned out to be 100% and the “Mutant Fraction” value is on record as 8.1 × 10^5.
On to `CC1=CC[C@@H]([C@@H](C)[C@H]2CC[C@@]3(C)[C@@H]4CC[C@H]5[C@](C)(C(=O)O)[C@@H](O[C@@H]6O[C@H](CO)[C@@H](O)[C@H](O)[C@H]6O[C@@H]6O[C@H](CO)[C@@H](O)[C@H](O)[C@H]6O)CC[C@@]56C[C@@]46CC[C@]23C)OC1=O` [Abrusoside C], for which, in series [1], the “Average body weight … Day 0” value amounted to 23.4 g; the “Average body weight of test animals, Day 1” value was 23.8 g; the “Average body weight … Day 3” value is listed as 24.3 g; the “Average body weight … Day 7” value was 25.3 g. Further, in series [1], the “Average body weight … Day 14” value turned out to be 26.9 g; the “t (body weight, test vs control), Day 0” value was 0.282; the “t (body weight, test vs control), Day 1” value is given as 0.371; the “t (body weight, test vs control), Day 3” value was found to be 0.302. In series [1], the “t (body weight, test vs control), Day 7” value amounted to 0.129 and the “t (body weight, test vs control), Day 14” value is reported as 0.930. In series [2], the “Sweetness relative to a 2% aqueous solution of sucrose” value turned out to be 50 x and the “Sweetness relative to 2% sucrose” value was determined as 50 times. For the same molecule, in series [3] (2.5 mg/ml, Aroclor S-9), the “% Survival” value was 100% and the “Mutant Fraction” value was 7.7 × 10^5. Also, in series [3] (setting [5]), the “% Survival” value was 100% and the “Mutant Fraction” value is given as 8.1 × 10^5. For the same molecule, in series [3] (5.0 mg/ml, Aroclor S-9), the “% Survival” value came to 100% and the “Mutant Fraction” value is listed as 6.7 × 10^5. In series [3] (setting [6]), the “% Survival” value is recorded as 100% and the “Mutant Fraction” value was 7.6 × 10^5.
In the case of `CC1(C)[C@@H](O[C@H]2O[C@H](C(=O)O)[C@@H](O)[C@H](O)[C@H]2O[C@@H]2O[C@H](C(=O)O)[C@@H](O)[C@H](O)[C@H]2O)CC[C@]2(C)[C@H]3C(=O)C=C4[C@@H]5C[C@@](C)(C(=O)O)CC[C@]5(C)CC[C@@]4(C)[C@]3(C)CC[C@@H]12` [Glycyrrhizin], the “Retention of sodium, chlorine and water” value in series [4] (humans) is “can cause abnormal retention of sodium, chlorine and water in humans”. Also, the Adrenocorticomimetic activity result in series [4] (mimics the effects of the adrenal cortex) is reported as “known adrenocorticomimetic activity”.
Consider `COC(=O)[C@H]1O[C@@H](O[C@H]2[C@H](O[C@H]3CC[C@]45C[C@]46CC[C@]4(C)[C@@H]([C@H](C)[C@@H]7CC=C(C)C(=O)O7)CC[C@@]4(C)[C@@H]6CC[C@H]5[C@]3(C)C(=O)O)O[C@H](CO)[C@@H](O)[C@@H]2O)[C@H](O)[C@@H](O)[C@@H]1O` [Abrusoside B], for which, in series [1], the “Average body weight … Day 0” value turned out to be 23.5 g; the “Average body weight of test animals, Day 1” value was found to be 23.7 g; the “Average body weight … Day 3” value is given as 23.9 g; the “Average body weight … Day 7” value amounted to 25.0 g. Further, in series [1], the “Average body weight … Day 14” value was determined as 26.4 g; the “t (body weight, test vs control), Day 0” value is on record as 0.432; the “t (body weight, test vs control), Day 1” value is listed as 0.330; the “t (body weight, test vs control), Day 3” value worked out at 0.458. In series [1], the “t (body weight, test vs control), Day 7” value is listed as 0.576 and the “t (body weight, test vs control), Day 14” value is given as 0.282. Also, in series [2], the “Sweetness relative to a 2% aqueous solution of sucrose” value turned out to be 100 x and the “Sweetness relative to 2% sucrose” value was found to be 100 times. Further, in series [3] (2.5 mg/ml, Aroclor S-9), the “% Survival” value came to 100% and the “Mutant Fraction” value is recorded as 7.2 × 10^5. Also, in series [3] (setting [5]), the “% Survival” value came out at 100% and the “Mutant Fraction” value is reported as 8.7 × 10^5. For the same molecule, in series [3] (5.0 mg/ml, Aroclor S-9), the “% Survival” value is 100% and the “Mutant Fraction” value is 8.2 × 10^5. Further, in series [3] (setting [6]), the “% Survival” value is 100% and the “Mutant Fraction” value is 7.3 × 10^5.
In the case of Abrusoside D, in series [1], the “Average body weight … Day 0” value amounted to 24.1 g; the “Average body weight of test animals, Day 1” value was found to be 24.4 g; the “Average body weight … Day 3” value was 24.9 g; the “Average body weight … Day 7” value turned out to be 25.7 g. Further, in series [1], the “Average body weight … Day 14” value was determined as 27.0 g; the “t (body weight, test vs control), Day 0” value is 1.199; the “t (body weight, test vs control), Day 1” value amounted to 1.140; the “t (body weight, test vs control), Day 3” value worked out at 0.991. Besides, in series [1], the “t (body weight, test vs control), Day 7” value is reported as 0.383 and the “t (body weight, test vs control), Day 14” value turned out to be 0.812. Also, the “Duration of lingering sweetness” value in series [2] (0.04% w/v) is reported as “about 30 minutes”. In series [2], the “Sweetness relative to a 2% aqueous solution of sucrose” value is given as 75 x and the “Sweetness relative to 2% sucrose” value amounted to 75 times. Also, in series [3] (2.5 mg/ml, Aroclor S-9), the “% Survival” value was 100% and the “Mutant Fraction” value is 11.8 × 10^5. For the same molecule, in series [3] (setting [5]), the “% Survival” value was 100% and the “Mutant Fraction” value is recorded as 16.7 × 10^5. In series [3] (5.0 mg/ml, Aroclor S-9), the “% Survival” value was determined as 100% and the “Mutant Fraction” value is 11.0 × 10^5. In series [3] (setting [6]), the “% Survival” value came out at 100% and the “Mutant Fraction” value was 15.3 × 10^5.

Source of the values: patent US5198427A, “Natural intense sweeteners” (Research Corporation Technologies, Inc., priority 1990, dated 1993).
